This is an account of results in publication PMC5562778 (Archives of Toxicology, 2017).

The subject of data set [1] is SULT. Kind of data set: SULT mediated conversion of 7-hydroxycoumarin to 7-hydroxycoumarin sulfate, liver S9. The format is in vitro ADME, human. The method, then:
(§1) The quality of the Chinese and Caucasian liver microsomes was checked by measuring the activity of CYP1A2 and CYP2A6 by the method of Yang et al. ([2012]). The quality of Chinese and Caucasian liver S9 samples was checked by measuring the SULT activity based on the method provided by Wang et al. ([2006]). The details of the methods for the microsomal and S9 in vitro incubations and UPLC analysis for assessing the metabolic capabilities of CYP and SULT enzymes can be found in the supporting materials 1.
(§2) Before UPLC analysis, all samples were centrifuged for 5 min at 16, 000g to precipitate microsomal or cytosolic proteins. Supernatant of each sample was analyzed on UPLC using a BEH C18 (1.7 μm 2.1×50 mm) column with a guard column and a diode array detector (Acquity, Waters).

The subject of data set [2] is Caucasian liver microsomes. Kind of data set: Microsomal conversion of estragole by Caucasian liver microsomes (NADPH). The format is in vitro ADME, human. Here is the method: (§3) The incubation mixtures contained (final concentrations) 3 mM NADPH and 1 mg/mL microsomal protein in 0.2 M Tris–HCl (pH 7.4). Incubations were performed for 10 min at substrate concentrations ranging from 25 to 1000 μM, after which the reaction was terminated by adding 25 μL ice-cold acetonitrile. Blank incubations were performed in the absence of the cofactor NADPH. All incubations were performed in triplicate. In the supporting materials 2, detailed information can be found (Table S1 can be used to keep track of detailed information).
Before UPLC analysis, all samples were centrifuged for 5 min at 16,000 g to precipitate microsomal proteins. Supernatant of each sample was analyzed on UPLC using a BEH C18 (1.7 μm, 2.1 × 50 mm) column with a guard column and a diode array detector (Acquity, Waters). […] Table S1 can be used to keep track of detailed information. […] 3′-Hydroxyanethole was quantified by comparison of the peak areas of the metabolite in the chromatograms obtained at a wavelength of 206 nm to the calibration curve of the synthesized reference compound (Agharahimi and LeBel [1995]; Drinkwater et al. [1976]; Iyer et al. [2003]; Luo et al. [1992]).
(§4) The apparent maximum velocity (V max) and the apparent Michaelis–Menten constant (K m) were determined by fitting the data to this equation using GraphPad Prism version 5.0 (GraphPad software, San Diego California USA).
(§5) The incubation mixtures contained (final concentrations) 3 mM NADPH and 1 mg/ml microsomal protein in 0.2 M Tris-HCl (pH 7.4). […] Incubations were performed for 10 min at substrate concentrations ranging from 25 to 1000 μM, after which the reaction was terminated by adding 25 μl ice-cold acetonitrile. […] Blank incubations were performed in the absence of the cofactor NADPH. All incubations were performed in triplicate.
The flow rate was 0.6 ml/min and the gradient started with 100 % ultrapure water. After 1 min, the amount of acetonitrile was increased to 10 % and kept at that level for 1 min, after which the percentage of acetonitrile was increased to 35 % in 2.5 min and then increased to 100 % over 0.5 minute and kept at 100 % acetonitrile for another 1 min, and finally back to the starting conditions.
In general terms: Microsomes from liver hold many membrane-bound enzymes, among them those of drug oxidation.

The subject of data set [3] is Chinese liver S9. Kind of data set: Sulfation of 1′-hydroxyestragole by Chinese liver S9 (PAPS, GSH trapping). The format is in vitro ADME, human. The method, then:
(§6) The formation of 1′-sulfooxyestragole was determined by incubating 0.2 mg/mL pooled mixed gender Chinese or Caucasian liver S9 in the presence of 0.2 mM PAPS as cofactor and 10 mM GSH as trapping agent for the reactive 1′-sulfooxyestragole in 0.1 M potassium phosphate (pH 8.0). The incubations were carried out for 2 h, and the reactions were terminated by adding 25 μL ice-cold acetonitrile. The blank samples were performed without cofactor. All incubations were performed in triplicate. In the supporting materials 2, detailed information can be found (Table S1 can be used to keep track of detailed information).
(§7) Before UPLC analysis, all samples were centrifuged for 5 min at 16, 000 g to precipitate microsomal or cytosolic proteins. Supernatant of each sample was analyzed on UPLC using a BEH C18 (1.7 μm, 2.1 × 50 mm) column with a guard column and a diode array detector (Acquity, Waters). Secondary metabolism of 1′-hydroxyestragole includes glucuronidation, oxidation, and sulfation. The gradient of analysis of the metabolites of 1′-hydroxyestragole can be found in supporting materials 2. Table S1 can be used to track more detailed information.
(§8) Since the UV spectrum of 3′-hydroxyanethole is similar to that of the GSH adduct of 1′-sulfooxyestragole, quantification of 1′-sulfooxyestragole could be achieved by comparing the peak area of the GSH adduct of 1′-sulfooxyestragole to the calibration curve of 3′-hydroxyanethole at a wavelength 260 nm as described for the quantification of 1′-sulfooxysafrole and 1′-sulfooxyelemicin (Martati et al. [2012]; Van den Berg et al. [2012]). The amount of 1′-sulfooxyestragole GSH adduct formed was corrected for the amount detected in the blank samples performed without the respective cofactor PAPS.
as §4
(§9) The formation of 1'-sulfooxyestragole was determined by incubating 0.2 mg/ml pooled mixed gender Chinese or Caucasian liver S9 in the presence of 0.2 mM PAPS as cofactor and 10 mM GSH as trapping agent for the reactive 1'-sulfooxyestragole in 0.1 M potassium phosphate (pH 8.0). The final volume of the incubations was 100 μl with the substrate 1'-hydroxyestragole ranging from 15 to 2000 μM added from 100 times concentrated stock solutions in DMSO. As previously described by Martati et al. (Martati et al. 2011) and Al-Subeihi et al. (Al-Subeihi et al. 2011), the reactions were started by adding substrate after a pre-incubation at 37 °C for 1 min. The incubations were carried out for 2 hours and the reactions were terminated by adding 25 μl ice-cold acetonitrile. […] The blank samples were performed without cofactor. All incubations were performed in triplicate.
(§10) For detection of the GSH conjugate of 1'-sulfooxyestragole, the flow rate was 0.6 ml/min and the mobile phase was made with acetonitrile and ultrapure water with 0.1 % (v/v) TFA. A linear gradient started from 20 to 30 % acetonitrile in 4.5 min, after which the percentage of acetonitrile was increased to 100 % in 0.3 min and kept at 100 % for another 0.2 min and finally set back to the starting condition.

For data set [4], the system named is Chinese liver microsomes. Briefly: Microsomal conversion of estragole by Chinese liver microsomes (NADPH). Here is the method: as §3
Before UPLC analysis, all samples were centrifuged for 5 min at 16,000 g to precipitate microsomal proteins. Supernatant of each sample was analyzed on UPLC using a BEH C18 (1.7 μm, 2.1 × 50 mm) column with a guard column and a diode array detector (Acquity, Waters). […] Table S1 can be used to keep track of detailed information.
as §4, §5
The flow rate was 0.6 ml/min and the gradient started with 100 % ultrapure water.

Data set [5] deals with T1, CYP 2A6 (Homo sapiens, UniProt P11509).
T1 construct: tissue PrimeTox (Chinese pool); BD Gentest (Caucasian pool); host or cells: pooled mixed-gender human liver microsomes
T1 sequence (P11509 1-494): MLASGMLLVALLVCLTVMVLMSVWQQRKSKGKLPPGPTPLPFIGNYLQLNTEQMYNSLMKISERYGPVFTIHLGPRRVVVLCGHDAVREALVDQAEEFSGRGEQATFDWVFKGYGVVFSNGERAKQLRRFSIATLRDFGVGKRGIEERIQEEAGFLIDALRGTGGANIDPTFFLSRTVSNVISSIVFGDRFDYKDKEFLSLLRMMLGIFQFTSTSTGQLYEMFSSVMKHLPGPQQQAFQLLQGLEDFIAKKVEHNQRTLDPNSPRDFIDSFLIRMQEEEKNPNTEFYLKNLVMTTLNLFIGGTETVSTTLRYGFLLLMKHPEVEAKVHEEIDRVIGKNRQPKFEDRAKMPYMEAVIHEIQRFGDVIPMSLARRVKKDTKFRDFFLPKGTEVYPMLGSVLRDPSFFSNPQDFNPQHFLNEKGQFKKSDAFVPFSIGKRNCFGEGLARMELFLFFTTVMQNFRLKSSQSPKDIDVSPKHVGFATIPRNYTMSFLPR
Set-up: method as in Yang et al. 2012. The following applies: ref Yang et al. 2012, cited from earlier work.

The target in data set [6] is T1, CYP 2A6. Briefly: CYP 2A6 mediated 7-hydroxylation of coumarin, liver microsomes. The format is in vitro ADME. Here is the method:
as §1
The quality of the Chinese and Caucasian liver microsomes was checked by measuring the activity of CYP 1A2 and CYP 2A6 by the method of Yang et al. (Yang et al. 2012). CYP 1A2 and CYP 2A6 are predominant enzymes for formation of 1'-hydroxyestragole (Jeurissen et al. 2007). The activity of CYP 1A2 was measured with the substrate phenacetin, and the activity of CYP 2A6 was checked using the substrate coumarin. […] The samples were centrifuged for 5 min at 16, 000g to precipitate microsomal proteins and analyzed by UPLC.
as §2

The test system of data set [7] is Caucasian liver S9. Kind of data set: Sulfation of 1′-hydroxyestragole by Caucasian liver S9 (PAPS, GSH trapping). The format is in vitro ADME, human. The method, then: as §6, §7, §8, §4, §9, §10
Where [8] appears, read: formation of the metabolite from estragole, Caucasian liver microsomes, average ± SEM.
[9] abbreviates: formation of the metabolite from estragole, Chinese liver microsomes, average ± SEM.
[10] abbreviates: in vitro, liver microsomes, conversion of estragole.
Where [11] appears, read: formation from 1′-hydroxyestragole (sulfation), Caucasian liver S9.
The mark [12] stands for this setting: formation from 1′-hydroxyestragole (sulfation), Chinese liver S9.

Consider `O=c1ccc2ccc(O)cc2o1` [7-hydroxycoumarin], for which the “Vmax for SULT mediated conversion, both ethnic groups compared” value in data set [1] (Chinese and Caucasian liver S9) was “similar”. In data set [1] (human, pH 7.4, Chinese liver S9), the Km at 10 min was found to be 1.7 µM.
Regarding `C=CC(O)c1ccc(OC)cc1` (centres unmarked) [1′-Hydroxyestragole], the “Catalytic efficiency (scaled V max / K m)” value in data set [2] (formation from estragole, Caucasian, scaled to liver) came to 40.3 µL/h/g liver; in data set [4] (formation from estragole, Chinese, scaled to liver) it was 15.0 µL/h/g liver. The “Scaled V max” value in data set [2] (formation from estragole, Caucasian, scaled with microsomal protein yield 35 mg/(g tissue)) came out at 2.5 µmol/h/g liver; in data set [4] (formation from estragole, Chinese, scaled with microsomal protein yield 35 mg/(g tissue)) it was 0.7 µmol/h/g liver. Moreover, the “Catalytic efficiency (V max/K m × 1000)” value in data set [2] (formation of the metabolite from estragole, Caucasian liver microsomes) is reported as 19.3 µL/min/mg microsomal or S9 protein. Besides, the K m in data set [2] (setting [8]) is 62 ± 9 µM; in data set [4] (setting [9]) it was 49 ± 8 µM. Further, the results for the V max in data set [2] (setting [8]) and in data set [4] (setting [9]) were 1.19 ± 0.04 nmol /min/mg microsomal or S9 protein and 0.35 ± 0.01 nmol /min/mg microsomal or S9 protein, respectively. Moreover, the “Scaled catalytic efficiency for sulfation, lower for Chinese than Caucasian samples” value in data set [3] (scaled to liver, sulfation of 1′-hydroxyestragole to 1′-sulfooxyestragole) was found to be 4.5 fold. Further, the “Catalytic efficiency for formation of the metabolite, lower in Chinese than in Caucasian samples” value in data set [4] (setting [10]) is on record as 2.4 fold. The “V max for formation of the metabolite, lower in Chinese than in Caucasian samples” value in data set [4] (setting [10]) worked out at 3.4 fold. Besides, in data set [4] (scaled kinetic constants (Table 3), conversion of estragole), the “V max, lower in Chinese than in Caucasian liver incubations” value worked out at 3.5 fold.
For `O=c1ccc2ccccc2o1` [coumarin], the “Catalytic efficiency for CYP 2A6” value in data set [5] (Chinese liver microsomes, literature range) is given as 150-1776 µl/min/(mg microsomal protein). Also, the “CYP 2A6 catalyzed activity, Chinese versus Caucasian liver microsomes” value in data set [5] is reported as “no difference”. The “Catalytic efficiency of CYP 2A6 mediated conversion, lower in Chinese than Caucasian liver microsomes” value in data set [6] turned out to be 1.6 fold.
In the case of `C=CC(OS(=O)(=O)O)c1ccc(OC)cc1` (centres unmarked) [1′-Sulfooxyestragole], the figures for the “Catalytic efficiency (V max/K m × 1000)” value in data set [7] (setting [11]) and in data set [3] (setting [12]) were 0.01 µL/min/mg microsomal or S9 protein and 0.0021 µL/min/mg microsomal or S9 protein, respectively. Further, the K m in data set [7] (setting [11]) is listed as 423 ± 159 µM; in data set [3] (setting [12]), 694 ± 321 µM. For the same compound, the V max is 0.004 ± 0.0005 nmol /min/mg microsomal or S9 protein in data set [7] (setting [11]) and 0.0014 ± 0.0002 nmol /min/mg microsomal or S9 protein in data set [3] (setting [12]). The “Scaled V max” value is 0.03 µmol/h/g liver in data set [7] (sulfation of 1′-hydroxyestragole, Caucasian, S9 protein yield 143 mg/(g tissue)) and 0.01 µmol/h/g liver in data set [3] (sulfation of 1′-hydroxyestragole, Chinese, S9 protein yield 143 mg/(g tissue)). Also, the “Catalytic efficiency (scaled V max / K m)” value was 0.08 µL/h/g liver in data set [7] (sulfation of 1′-hydroxyestragole, Caucasian, scaled to liver) and 0.02 µL/h/g liver in data set [3] (sulfation of 1′-hydroxyestragole, Chinese, scaled to liver). The “Catalytic efficiency for formation of 1′-sulfooxyestragole, lower in Chinese than in Caucasian samples” value in data set [3] (in vitro, sulfation of 1′-hydroxyestragole, liver S9) is listed as “fivefold”.

A word on the Km: it is the substrate concentration at which the rate is half of its maximum.
